Where two headings read alike, the source gives them in different places.
Key:
MCF-7 = assay: MTT cytotoxicity assay; assay type: cell-based; settings: Homo sapiens, read-out: IC50 MCF-7
Experimental: (§1) Numerous cancer cell lines were procured from the American Type Culture Collection (ATCC) situated in Manassas, USA. […] The culture medium was supplemented with penicillin (100 units/mL), streptomycin ([…]), and heat-inactivated fetal bovine serum (10%). The cultivation of these cancer cells was carried out in a humidified atmosphere with 5% (v/v) CO2 at a temperature of 37 °C.
(§2) The 3-[4,5-dimethylthiazole-2-yl]-2,5-diphenyltetrazolium bromide (MTT) assay was used to evaluate the cytotoxicity of different substances or treatments. A commonly used approach for assessing the viability and proliferation of cells, including the cancer cell lines described, is colorimetric analysis.
(§3) Actively proliferating cells from different cancer cell lines were first trypsinized and quantified. […] These seeded cells were incubated in a humidified environment at 37 °C for 24 h to allow for cell attachment and acclimation.
(§4) Following the initial incubation, the cells were subjected to different doses of the chemicals under investigation, ranging from 0.1 to 1000 μM, for a duration of 72 h. The MTT assay was used to evaluate the treated cells’ vitality. Specifically, the culture media were removed, and the cells were incubated with 200 μl of 5% MTT solution per well.
(§5) Due to this, the MTT dye was metabolized by the living cells over the course of 2 h, forming colorful, insoluble formazan crystals.
(§6) This allowed the viable cells to metabolize the MTT dye into colored, insoluble formazan crystals over a 2-h period. After this incubation, the formazan crystals were dissolved in 200 μl of acidified isopropanol per well for 30 min after the residual MTT solution was withdrawn. This dissolution step was carried out at room temperature with a MaxQ 2000 plate shaker, covered with aluminum foil and continuously shaking.
(§7) The absorbance of the dissolved formazan crystals was measured at 570 nm through the use of Stat FaxR 4200 plate reader.

EGFR^T790M = molecular target: T1, EGFR^T790M (Homo sapiens, UniProt P00533, T790M); assay: EGFR^T790M kinase inhibition assay (HTRF); assay type: biochemical; settings: mean of three separate experiments
T1 construct: purchased Sigma
T1 sequence (P00533 25-1210 T790M): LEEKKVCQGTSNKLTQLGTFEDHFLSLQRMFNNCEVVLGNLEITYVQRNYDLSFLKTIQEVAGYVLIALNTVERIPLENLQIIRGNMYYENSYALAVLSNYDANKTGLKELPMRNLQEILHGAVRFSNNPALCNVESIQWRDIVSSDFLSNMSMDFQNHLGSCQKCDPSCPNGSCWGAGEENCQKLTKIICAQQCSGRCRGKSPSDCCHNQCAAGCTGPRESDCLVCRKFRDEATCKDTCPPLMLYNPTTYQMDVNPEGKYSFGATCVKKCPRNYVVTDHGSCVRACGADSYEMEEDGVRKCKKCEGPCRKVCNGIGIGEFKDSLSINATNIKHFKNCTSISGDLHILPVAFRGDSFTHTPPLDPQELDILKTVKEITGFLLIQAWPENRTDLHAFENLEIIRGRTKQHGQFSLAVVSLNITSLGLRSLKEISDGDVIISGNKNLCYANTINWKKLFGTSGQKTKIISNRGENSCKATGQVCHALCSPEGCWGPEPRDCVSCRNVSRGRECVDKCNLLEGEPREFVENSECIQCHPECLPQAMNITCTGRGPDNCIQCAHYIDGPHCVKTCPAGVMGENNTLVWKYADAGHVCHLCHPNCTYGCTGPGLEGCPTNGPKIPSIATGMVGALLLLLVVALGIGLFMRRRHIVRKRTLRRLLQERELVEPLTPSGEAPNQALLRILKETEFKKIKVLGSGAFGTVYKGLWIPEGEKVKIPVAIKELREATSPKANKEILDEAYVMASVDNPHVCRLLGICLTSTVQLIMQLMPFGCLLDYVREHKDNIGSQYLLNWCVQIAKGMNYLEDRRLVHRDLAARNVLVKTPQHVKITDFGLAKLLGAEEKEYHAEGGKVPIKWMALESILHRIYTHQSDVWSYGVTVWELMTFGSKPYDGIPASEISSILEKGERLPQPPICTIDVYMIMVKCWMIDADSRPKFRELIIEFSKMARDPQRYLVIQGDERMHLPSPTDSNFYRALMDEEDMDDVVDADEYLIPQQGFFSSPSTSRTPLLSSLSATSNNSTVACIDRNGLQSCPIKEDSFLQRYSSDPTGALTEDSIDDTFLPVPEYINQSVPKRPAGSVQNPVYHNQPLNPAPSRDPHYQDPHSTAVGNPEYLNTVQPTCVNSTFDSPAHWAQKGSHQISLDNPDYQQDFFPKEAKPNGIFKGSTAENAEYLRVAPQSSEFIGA
Experimental: The study utilized the homogeneous time resolved fluorescence (HTRF) assay to evaluate the kinase activity of EGFR^T790M mutant. The EGFR^T790M enzyme and ATP were obtained from Sigma. Initially, the tested chemical was first incubated for 5 min with the EGFR^T790M enzyme and its substrates in an enzymatic buffer. This pre-incubation step allowed the compound to interact with the enzyme before the catalytic reaction was initiated. […] The assay was carried out at room temperature for 30 min. The samples were mixed with detection reagents containing EDTA to stop the enzymatic process. The detection phase was allowed to proceed for 1 h. By utilizing GraphPad Prism 5.0 software, the inhibitory potency of the tested compounds was determined by calculating the half-maximal inhibitory concentration (IC50) values. Three independent measurements were done to determine the concentration of each compound.

VEGFR-2 = molecular target: T2, VEGFR-2 (Homo sapiens, UniProt P35968); assay: In vitro VEGFR-2 kinase assay (Alpha Screen, anti-phosphotyrosine antibody); assay type: biochemical; settings: mean of three separate experiments
T2 construct: purchased Millipore, UK
T2 sequence (P35968 20-1356): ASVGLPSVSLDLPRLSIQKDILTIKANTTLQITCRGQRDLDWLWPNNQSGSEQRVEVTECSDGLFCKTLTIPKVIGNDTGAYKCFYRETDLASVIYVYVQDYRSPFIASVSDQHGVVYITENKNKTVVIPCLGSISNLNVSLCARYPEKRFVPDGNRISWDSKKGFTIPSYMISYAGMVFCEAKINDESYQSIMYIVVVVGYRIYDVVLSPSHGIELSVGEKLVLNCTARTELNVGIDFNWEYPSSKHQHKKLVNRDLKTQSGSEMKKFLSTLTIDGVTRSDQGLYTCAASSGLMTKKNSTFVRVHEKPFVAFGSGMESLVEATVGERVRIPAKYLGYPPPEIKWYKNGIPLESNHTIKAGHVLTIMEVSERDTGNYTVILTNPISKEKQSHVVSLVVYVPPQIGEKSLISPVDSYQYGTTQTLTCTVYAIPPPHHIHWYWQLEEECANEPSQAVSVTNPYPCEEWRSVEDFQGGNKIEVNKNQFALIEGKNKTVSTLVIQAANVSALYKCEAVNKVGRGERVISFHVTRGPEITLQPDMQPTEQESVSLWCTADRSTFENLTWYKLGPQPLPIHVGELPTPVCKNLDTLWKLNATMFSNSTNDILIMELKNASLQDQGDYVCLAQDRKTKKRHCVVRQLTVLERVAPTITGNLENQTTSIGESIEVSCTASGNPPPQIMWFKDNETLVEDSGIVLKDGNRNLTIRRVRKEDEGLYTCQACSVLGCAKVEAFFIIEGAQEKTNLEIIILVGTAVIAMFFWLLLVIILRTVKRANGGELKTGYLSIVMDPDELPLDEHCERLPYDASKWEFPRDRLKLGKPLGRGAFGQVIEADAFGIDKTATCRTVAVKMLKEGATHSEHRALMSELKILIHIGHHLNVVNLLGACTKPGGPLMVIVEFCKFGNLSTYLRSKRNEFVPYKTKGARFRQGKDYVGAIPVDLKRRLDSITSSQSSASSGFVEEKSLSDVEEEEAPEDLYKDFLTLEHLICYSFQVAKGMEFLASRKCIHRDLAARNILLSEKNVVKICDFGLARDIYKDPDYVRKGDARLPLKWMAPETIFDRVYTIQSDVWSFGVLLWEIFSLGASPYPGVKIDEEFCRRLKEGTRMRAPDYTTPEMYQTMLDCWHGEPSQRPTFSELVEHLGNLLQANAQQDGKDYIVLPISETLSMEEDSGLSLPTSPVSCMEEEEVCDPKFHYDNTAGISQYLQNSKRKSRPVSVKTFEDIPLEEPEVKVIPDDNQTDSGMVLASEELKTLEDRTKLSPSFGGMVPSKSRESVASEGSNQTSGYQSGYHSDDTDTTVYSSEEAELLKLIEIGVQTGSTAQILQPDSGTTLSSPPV
Experimental: Analyzing the assay of VEGFR-2 kinase involved utilizing the Alpha Screen system (PerkinElmer, USA) and an anti-phosphotyrosine antibody in accordance with the manufacturer’s protocol. A solution containing 50 mM Tris–HCl (pH 7.5), 5 mM MnCl2, 5 mM MgCl2, 0.01% Tween-20, and 2 mM DTT was used to conduct the enzyme reactions. A total of 10 μM ATP, 0.1 μg/mL of biotinylated poly-GluTyr (in a 4:1 ratio), and 0.1 nM of VEGFR-2 (Millipore, UK) were all added in the reaction mixture.
After an overnight dark incubation, the plate was read using an ELISA Reader (PerkinElmer, USA). The baseline control was represented by wells with biotinylated poly-GluTyr (4:1) and the enzyme but without ATP, and the reaction control was provided by wells with the substrate and the enzyme but not the tested compounds.
The percentage inhibition was computed by comparing contrasting the compound-treated samples with the control incubations.

HCT116 = assay: MTT cytotoxicity assay; assay type: cell-based; settings: Homo sapiens, HCT-116, 72 h, mean of three separate experiments
Experimental: as §1, §2, §3, §4, §5, §6, §7

A549 = assay: MTT cytotoxicity assay; assay type: cell-based; settings: Homo sapiens, 72 h, mean of three separate experiments
Experimental: as §1, §2, §3, §4, §5, §6, §7

HepG2 = assay: MTT cytotoxicity assay; assay type: cell-based; settings: Homo sapiens, read-out: IC50 HepG2
Experimental: as §1, §2, §3, §4, §5, §6, §7

Work on C#Cc1cccc(Nc2ncnc3cc(OCCOC)c(OCCOC)cc23)c1 [Erlotinib] yielded an IC50 (MCF-7; MCF7, 72 h) of 8.2 µM.
Work on C[C@@H]1O[C@@H](OC[C@H]2O[C@@H](Oc3c(-c4ccc(O)c(O)c4)oc4cc(O)cc(O)c4c3=O)[C@H](O)[C@@H](O)[C@@H]2O)[C@H](O)[C@H](O)[C@H]1O [Rutin (3), rutin] yielded an IC50 (EGFR^T790M) of 0.66 µM, an IC50 (VEGFR-2) of 1.18 µM and an IC50 (MCF-7; MCF7, MTT, 72 h, mean of three separate experiments) of 12.3 µM. For the same compound, the IC50 (HCT116) was 15.6 µM, the IC50 (A549) was 8.71 µM and the IC50 (HepG2; HepG2, MTT, 72 h, mean of three separate experiments) was 14.9 µM.
CNC(=O)c1cc(Oc2ccc(NC(=O)Nc3ccc(Cl)c(C(F)(F)F)c3)cc2)ccn1 [Sorafenib] showed an IC50 (HepG2; HepG2, 72 h) of 4 µM.

Reference: PMC11985661 (Naunyn-Schmiedeberg's Archives of Pharmacology, 2024)
